Target: T1, BDKRB1 (Homo sapiens, UniProt P46663)
T1 construct: purchased Promega (in-house HiBiT-GPCR construct library, NanoBRET)
T1 sequence (P46663 1-353): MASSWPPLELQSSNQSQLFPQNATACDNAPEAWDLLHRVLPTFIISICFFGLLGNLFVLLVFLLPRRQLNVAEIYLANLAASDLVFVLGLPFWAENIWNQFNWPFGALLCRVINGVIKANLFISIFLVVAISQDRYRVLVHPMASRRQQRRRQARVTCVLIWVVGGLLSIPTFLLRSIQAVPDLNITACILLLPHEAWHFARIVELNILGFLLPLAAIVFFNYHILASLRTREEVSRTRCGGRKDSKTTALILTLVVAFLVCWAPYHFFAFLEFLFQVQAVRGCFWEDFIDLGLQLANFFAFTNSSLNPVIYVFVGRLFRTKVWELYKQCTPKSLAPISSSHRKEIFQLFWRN
Experiment: NanoBRET screen HiBiT-BDKRB1 in HEK293
Format: binding
Experimental: Each tracer candidate was screened across the entire library of HiBiT-GPCR constructs using NanoBRET as the detection modality. As depicted in Figure 4A, the specificity of interactions was evaluated through decrease in BRET due to competitive displacement of a bound tracer by excess parental compound. Each tracer was analyzed for binding to each HiBiT-GPCR fusion in the absence and in the presence of competing parental compound. Briefly, HEK293 cells were transfected with HiBiT-GPCR constructs diluted into promoterless DNA to reduce expression and maximize translocation to the cell surface. Each tracer candidate was then screened at concentrations of 1 μM and 0.1 μM across cells expressing these fusions. Cells were treated for 1.5 h with tracer either alone or in the presence of 20 μM competing parental compound (i.e., control). BRET was measured upon addition of purified LgBiT and subsequent complementation with HiBiT genetically fused to a GPCR. The specificity of interactions was assessed through a decrease in BRET signal due to competitive displacement of the bound tracer. To further gauge the robustness of these interactions, the fold response over the control (i.e., BRETtracer/BRETcontrol) was calculated. We chose a 1.5-fold response, which translates to ≥7-fold signal over noise as the minimal threshold required to score an interaction as positive. […]. Below we highlight the screening results obtained for our exemplary fluorescent tracers based on Clozapine, Amitriptyline and AZD1283.
HiBiT-GPCR DNA constructs were diluted in 10 mM Tris pH 8 to a final concentration of 0.01 μg/μL, arrayed in 96-well plates and stored at −20 °C. For transfection, HEK293 cells were suspended in Opti-MEM (without phenol red) supplemented with 2% fetal bovine serum (Seradigm) and 100 units/mL penicillin–streptomycin (Gibco) at a final concentration of 220,000 cells/mL and dispensed into white 96-well plates at 90 μL/well. Subsequent transfections and screens were carried using an Agilent Bravo Automated Liquid Handling Platform. First, the 96-well HiBiT DNA arrays were diluted 25-fold in Opti-MEM (without serum or phenol red) to a final concentration of 0.0004 μg/μL and 20 μL of the diluted DNAs were transferred into new 96-well plates. Next, promoterless carrier DNA (1 μg/μL) was diluted 25-fold (0.04 μg/μL) and then dispensed into the diluted arrays at 20 μL/well. Following brief mixing, Viafect transfection reagent (Promega) diluted 16-fold into Opti-MEM was dispensed into the plates at 40 μL/well. After mixing by pipetting, plates were incubated for 10 min on the pipetting station deck. The DNA-transfection reagent complexes were then added to plates containing cells. To facilitate the screen, 10 μL of DNA-transfection reagent complexes were added in duplicates to the top 4 and bottom 4 rows, resulting in two identical 48-well arrays per plate. Plates with transfected cells were incubated for 18–20 h at 37 °C/5% CO2. A screen of each tracer across the entire library using two different concentrations requires duplicate plates of transfected cells. Depending on the number of tracers being screened, transfections can be scaled up using the same ratios. The next day, for each tracer, four 20× screening solutions in tracer dilution buffer (Promega) were prepared: two duplicates at final concentration of 20 μM and two duplicates at a final concentration of 2 μM. A competing unmodified compound was added to one of each duplicate at a final concentration of 400 μM. The four resulting solutions were diluted 4-fold in Opti-MEM without serum or phenol red to generate 5× solutions (5 µM and 0.5 µM tracer +/− 100 μM competing compound). To screen the library, a BioTek MultiFlo FX liquid dispenser was used to dispense 22.5 µL of tracer solution to the top 4 rows and 22.5 µL tracer + competing compound solution to the 4 bottom rows. Plates were briefly mixed on an orbital shaker and incubated for 1.5 h at room temperature. […]

SMILES | NanoBRET Fold Response (BDKRB1, tracer 0.1μM) | NanoBRET Fold Response (BDKRB1, tracer 1μM) | also measured
CCOC(=O)c1cc(C#N)c(N2CCC(C(=O)NS(=O)(=O)Cc3ccccc3/C=C/C(=O)NCCNC(=O)CCc3ccc4n3[B-](F)(F)[N+]3=C(c5ccc[nH]5)C=CC3=C4)CC2)nc1C [AZD1283-1-NB590] |  |  | NanoBRET Fold Response (BDKRB1, 0.1μM): 1.05; NanoBRET Fold Response (BDKRB1, 1μM): 1.04
N#CN=C(NCCCOc1cccc(CN2CCCCC2)c1)NCCNC(=O)CCOCCOCCOCCOCCNC(=O)CCc1ccc2n1[B-](F)(F)[N+]1=C(c3ccc[nH]3)C=CC1=C2 [Aminopotentidine-2-NB590] | 1.01 | 1.02 | 
CN(C)CCC=C1c2ccccc2CCc2ccc(C(=O)NCCNC(=O)CCOCCOCCOCCOCCNC(=O)CCc3ccc4n3[B-](F)(F)[N+]3=C(c5ccc[nH]5)C=CC3=C4)cc21 [Amitriptyline-a-2-NB590] |  |  | NanoBRET Fold Response (tracer at 0.1μM): 1.13; NanoBRET Fold Response (tracer at 1μM): 1.04
CN(C)CCC=C1c2ccccc2CCc2ccc(C(=O)NCCNC(=O)CCOCCOCCOCCOCCNC(=O)CCc3ccc4n3[B-](F)(F)[N+]3=C(c5ccc[nH]5)C=CC3=C4)cc21 [Amitriptyline-b-2-NB590] |  |  | NanoBRET Fold Response (tracer at 0.1μM, listed as amitriptyline-b-2-NB590): 1.14; NanoBRET Fold Response (tracer at 1μM, listed as amitriptyline-b-2-NB590): 1.33
COc1ccc2c(n1)c(CCNC(C)=O)cn2CCNC(=O)CCc1ccc2n1[B-](F)(F)[N+]1=C(c3ccc[nH]3)C=CC1=C2 [Azamelatonin-1-NB590] |  |  | NanoBRET Fold Response (0.1μM tracer): 1.39; NanoBRET Fold Response (1μM tracer): 0.74
COc1ccc2[nH]c(-c3ccc(CNC(=O)CCOCCOCCOCCOCCNC(=O)CCc4ccc5n4[B-](F)(F)[N+]4=C(c6ccc[nH]6)C=CC4=C5)cc3)c(CCNC(C)=O)c2n1 [AzomelatoninICO9-2-NB590] |  |  | NanoBRET Fold Response (0.1μM tracer): 1.31; NanoBRET Fold Response (1μM tracer): 1.20
O=C(CCOCCOCCOCCOCCNC(=O)CCc1ccc2n1[B-](F)(F)[N+]1=C(c3ccc[nH]3)C=CC1=C2)NCCCN1CCN(C2=Nc3cc(Cl)ccc3Nc3ccccc32)CC1 [Clozapine-a-2-NB590] |  |  | NanoBRET Fold Response (BDKRB1, 0.1μM tracer): 1.02; NanoBRET Fold Response (BDKRB1, 1μM tracer): 1.37
CN1CCN(C2=Nc3cc(Cl)ccc3Nc3ccc(CNC(=O)CCOCCOCCOCCOCCNC(=O)CCc4ccc5n4[B-](F)(F)[N+]4=C(c6ccc[nH]6)C=CC4=C5)cc32)CC1 [Clozapine-b-2-NB590] |  |  | NanoBRET Fold Response (BDKRB1, 0.1μM tracer): 0.99; NanoBRET Fold Response (BDKRB1, 1μM tracer): 0.92
CN1CCN(C2=Nc3cc(Cl)ccc3N(CC(=O)NCCOCCOCCOCCOCCNC(=O)CCc3ccc4n3[B-](F)(F)[N+]3=C(c5ccc[nH]5)C=CC3=C4)c3ccccc32)CC1 [Clozapine-c-2-NB590] |  |  | NanoBRET Fold Response (BDKRB1, 0.1μM tracer): 1.06; NanoBRET Fold Response (BDKRB1, 1μM tracer): 1.07
O=C(CCOCCOCCOCCOCCNC(=O)CCc1ccc2n1[B-](F)(F)[N+]1=C(c3ccc[nH]3)C=CC1=C2)NCCCN1CCN(C2=Nc3ccccc3Oc3ccc(Cl)cc32)CC1 [Loxapine-a-2-NB590] | 1.05 | 1.27 | 
COc1ccccc1N1CCN(CCCCN2C(=O)c3ccc(CNC(=O)CCOCCOCCOCCOCCNC(=O)CCc4ccc5n4[B-](F)(F)[N+]4=C(c6ccc[nH]6)C=CC4=C5)cc3C2=O)CC1 [NAN-190-2-NB590] | 1.05 | 1.06 | 
COc1ccccc1N1CCN(CCCCN2C(=O)c3ccc(CNC(=O)CCOCCNC(=O)c4ccc(CNC(=O)CCc5ccc6n5[B-](F)(F)[N+]5=C(c7ccc[nH]7)C=CC5=C6)cc4)cc3C2=O)CC1 [NAN-190-3-NB590] | 0.84 | 1.05 | 
O=C(CCc1ccc2n1[B-](F)(F)[N+]1=C(c3ccc[nH]3)C=CC1=C2)NCc1ccc(C(=O)NCCOCCC(=O)N[C@@H]2CC[C@@]3(O)[C@H]4Cc5ccc(O)c6c5[C@@]3(CCN4CC3CC3)[C@H]2O6)cc1 [Naltrexone-3-NB590] | 1.18 | 1.03 | 
Cc1cc2c(s1)Nc1ccccc1N=C2N1CCN(CCCNC(=O)CCOCCOCCOCCOCCNC(=O)CCc2ccc3n2[B-](F)(F)[N+]2=C(c4ccc[nH]4)C=CC2=C3)CC1 [Olanzapine-a-2-NB590] | 0.83 | 1.10 | 
O=C(CCc1ccc2n1[B-](F)(F)[N+]1=C(c3ccc[nH]3)C=CC1=C2)NCc1ccc(C(=O)NCCOCCOCCNCC(O)COc2cccc3ccccc23)cc1 (stereo not shown) [Propranolol-3-NB590] |  |  | NanoBRET Fold Response (BDKRB1, 0.1μM): 0.95; NanoBRET Fold Response (BDKRB1, 1μM): 0.97
O=C(CCc1ccc2n1[B-](F)(F)[N+]1=C(c3ccc[nH]3)C=CC1=C2)NCCOCCOCCNC(=O)OCCOCCN1CCN(C2=Nc3ccccc3Sc3ccccc32)CC1 [Quetiapine-a-2-NB590] | 1.42 | 0.65 | 
Cc1nc2n(c(=O)c1CCN1CCC(c3noc4cc(F)ccc34)CC1)CCCC2OC(=O)NCCOCCOCCOCCOCCNC(=O)CCc1ccc2n1[B-](F)(F)[N+]1=C(c3ccc[nH]3)C=CC1=C2 (stereo not shown) [Risperidone-2-NB590] | 1.28 | 0.77 | 
CC(C)N(CC[C@H](c1ccccc1)c1cc(CCNC(=O)CCOCCOCCOCCOCCNC(=O)CCc2ccc3n2[B-](F)(F)[N+]2=C(c4ccc[nH]4)C=CC2=C3)ccc1O)C(C)C [Tolterodine-2-NB590] | 0.99 | 0.79 | 
CC(C)N(CC[C@H](c1ccccc1)c1cc(CCNC(=O)c2ccc(CNC(=O)CCc3ccc4n3[B-](F)(F)[N+]3=C(c5ccc[nH]5)C=CC3=C4)cc2)ccc1O)C(C)C [Tolterodine-BZ-NB590] | 1.02 | 0.85 | 
CCCn1c(=O)c2[nH]c(-c3ccc(OCC(=O)NCCNC(=O)CCOCCNC(=O)c4ccc(CNC(=O)CCc5ccc6n5[B-](F)(F)[N+]5=C(c7ccc[nH]7)C=CC5=C6)cc4)cc3)nc2n(CCC)c1=O [XAC-3-NB590] | 0.91 | 0.94 | 
